Measured values taken from patent US20140080128A1, “METHOD FOR DETERMINING WHETHER A SUBJECT IS AT RISK OF HAVING OR DEVELOPING A CHRONIC KIDNEY DISEASE” (Institut National de Ia Sante et de la Recherche Medicale …, priority 2011, published 2014).

What was measured:
Format in all cases: in vivo, Sprague-Dawley rats
[1] = test system: Hypertension-Induced Renal Disease Rat Model (L-NAME); assay: Urinary protein excretion and plasma creatinine in L-NAME rat model
Experimental: (§1) Male Sprague-Dawley rats, weighing 250 g, were maintained on a normal-salt diet and had free access to chow and tap water. NO synthesis was inhibited by L-NAME (orally, 15 mg·kg-1·day-1). […] When proteinuria exceeded 1 g/mmol creatinine (after 5 or 6 weeks), a group of animals was killed to allow estimations of renal hemodynamics and morphological parameters just before the beginning of therapy (LN 6w group, n=10). The remaining animals were divided into two subgroups for an additional experimental period of 4 weeks: in the first subgroup, L-NAME was given alone (LN 10w group, n=12); in the second subgroup treatment was accompanied by the administration of an AT1 receptor antagonist (Losartan, orally 30 mg·kg-1·day-1, Merck Sharp and Dohme-Chibret). At the end of Losartan treatment, we separated the animals of the second group in two subgroups: animals with normal creatininemia below 50 μmol/l (LN reg n=14) and animals with a creatininemia above 70 μmol/l (LN no reg n=15). The doses of the drugs were based on pilot experiments and previously published studies. Control animals were sacrificed at 6 and 10 week. Since control animals gave similar results for all measured parameters, pooled data are presented (C group, n=8). Others animals received Losartan during 4 weeks as additional control group (LOS group, n=3). All protocols and treatments were performed with the approval of the French government ethics committee. Urine samples were collected for a 4-h period. Urinary protein concentration was normalized to creatinine concentration, and values were expressed as grams protein per millimole creatinine. Blood samples were withdrawn on the last day of the study, and plasma creatinine (nmol/l) was measured by automated Jaffe's method.

[2] = test system: periostin, vimentin expression in renal cortex; assay: Real time quantitative PCR (and immunoblotting) of markers in renal cortex of L-NAME rat model; conditions: for periostin mRNA up-regulation in kidney (RT-qPCR): rats, versus baseline
Experimental: Male Sprague-Dawley rats, weighing 250 g, were maintained on a normal-salt diet and had free access to chow and tap water. NO synthesis was inhibited by L-NAME (orally, 15 mg·kg-1·day-1). […] When proteinuria exceeded 1 g/mmol creatinine (after 5 or 6 weeks), a group of animals was killed to allow estimations of renal hemodynamics and morphological parameters just before the beginning of therapy (LN 6w group, n=10). The remaining animals were divided into two subgroups for an additional experimental period of 4 weeks: in the first subgroup, L-NAME was given alone (LN 10w group, n=12); in the second subgroup treatment was accompanied by the administration of an AT1 receptor antagonist (Losartan, orally 30 mg·kg-1·day-1, Merck Sharp and Dohme-Chibret). At the end of Losartan treatment, we separated the animals of the second group in two subgroups: animals with normal creatininemia below 50 μmol/l (LN reg n=14) and animals with a creatininemia above 70 μmol/l (LN no reg n=15). The doses of the drugs were based on pilot experiments and previously published studies. Control animals were sacrificed at 6 and 10 week. Since control animals gave similar results for all measured parameters, pooled data are presented (C group, n=8). Others animals received Losartan during 4 weeks as additional control group (LOS group, n=3). All protocols and treatments were performed with the approval of the French government ethics committee. We extracted RNA from the renal cortex and the abdominal aorta using TRIzol solution (Life Technologies BRL, Gaithersburg, Md.). RNA quality was checked by measuring the ratio of optical densities at 260 and 280 nm and residual genomic DNA was removed by DNase I treatment for 30 min at 37° C. (Fermentas). We used reverse transcription with Revert Aid H minus First Strand DNA Synthesis kit (Fermentas) to convert 1 μg RNA into cDNA, which was then amplified by PCR using a LightCycler 480 (Roche Diagnostic) using SYBR Green (Fast Start DNA Master SYBRGreen I; Roche Applied Science, Roche Diagnostic), specific primers for POST, Col3A1, ESel, Vimentin, VCAM-1 and hypoxanthine-guanine phosphoribosyltransferase (HPRT) as housekeeping gene under the following conditions: 95° C. for 5 min, and 45 cycles at 95° C. for 15 s and 60° C. for 15 s, then 72° C. for 15 s. Specific primers were designed by Universal Probe Library system (UPL, Roche Applied Science). To normalize the Q-PCR results we used Roche LightCycler 2.0 software (Roche Diagnostic). We expressed results as 2-[…], where Cp is the cycle threshold number. We analyzed dissociation curves after each run for each amplicon to access the specificity of quantification when using SYBR Green. 25 μg of protein extracts obtained by RIPA buffer lysis of renal cortex were fractionated by SDS-PAGE NuPAGE 4/12% gels (Invitrogen) under reducing conditions using an XCell SureLockTM Mini-Cell (NuPAGE, Invitrogen, San Diego, Calif., USA) as described by the manufacturer and transferred onto a nitrocellulose membrane (Immobilon-P, Millipore, Billerica, Mass., USA) prior to detection of the POST (Biovendor) or β-actin (Imgenex, Clinisciences, France) protein with a specific rabbit polyclonal primary Ab (dilution 1/1000 and 1/5000 respectively) and a peroxidase-labelled IgG anti-rabbit secondary Ab (dilution 1/4000). The membrane was detected by enhanced chemiluminescence (ECL)-plus kit (Amersham Biosciences, Piscataway, N.J., USA) on autoradiography films (Fuji).

[3] = test system: Hypertension-Induced Renal Disease Rat Model (L-NAME); assay: Renal hemodynamics (arterial pressure, renal blood flow) in L-NAME hypertension-induced renal disease rat model; conditions: for MAP (mean arterial pressure): L-NAME orally 15 mg/kg/day
Experimental: as §1, with “committee.” for “committee. Urine samples were collected for a 4-h period. Urinary protein concentration was normalized to creatinine concentration, and values were expressed as grams protein per millimole creatinine. Blood samples were withdrawn on the last day of the study, and plasma creatinine (nmol/l) was measured by automated Jaffe's method.”
After anesthesia by pentobarbital sodium (50-60 mg/kg body wt ip, Nembutal, Abbott, Chicago, Ill.), animals were placed on a servo-controlled table kept at 37° C. and the trachea was cannulated to facilitate respiration. The left femoral artery was catheterized for measurement of arterial pressure, and a femoral venous catheter was used for infusion of volume replacement. An ultrasound transit-time flow probe (1RB, Transonic, Ithaca, N.Y.) was placed around the left renal artery. Bovine serum albumin (4.7 g/dl of saline solution) was infused initially at 50 μl/min to replace surgical losses, and then at 10 μl/min for maintenance. Arterial pressure was measured via a pressure transducer (Statham P23 DB); RBF was measured by a flowmeter (T 420, low-pass filter, 40 Hz, Transonic). RBF values were controlled for zero offset determined at the end of an experiment after cardiac arrest. Data were recorded, stored, and analyzed using a DataTranslation analog-to-digital converter and the IOX software (EMKA Technologies, Paris, France).

[4] = test system: CD3+ lymphocytes in renal cortex; assay: Immunohistochemistry for CD3 in kidney of L-NAME rat model; conditions: rats, after 6 and 10 weeks LNAME treatment
Experimental: as §1, with “[…] Quantification of CD3-positive cells was” for “Others animals received Losartan during 4 weeks as additional control group (LOS group, n=3). All protocols and treatments were”, “using Olympus analysis software.” for “with the approval of the French government ethics committee. Urine samples were collected for a 4-h period. Urinary protein concentration was normalized to creatinine concentration, and values were expressed as grams protein per millimole creatinine. Blood samples were withdrawn on the last day of the study, and plasma creatinine (nmol/l) was measured by automated Jaffe's method.”

[5] = all losartan-treated groups compared to L-NAME 6w and 10w groups

Compound	proteinuria ([1]; rats, L-NAME, week 6)	creatininemia ([1]; rats, L-NAME, week 10)	periostin mRNA up-regulation in kidney (RT-qPCR) ([2]; after 6 weeks LNAME)	periostin mRNA up-regulation in kidney (RT-qPCR) ([2]; after 10 weeks LNAME)	MAP (mean arterial pressure) ([3]; rats, 6 weeks treatment)	MAP (mean arterial pressure) ([3]; rats, 10 weeks treatment)	renal blood flow ([3]; rats, from 6 weeks LNAME treatment onwards)	CD3+ lymphocyte count [4]	creatininemia ([1]; after 4 weeks Losartan (30 mg/kg/day orally)+LNAME, "No Regression" (NOREG) group)	creatininemia ([1]; after 4 weeks Losartan (30 mg/kg/day orally)+LNAME, "Regression" (REG) group)	proteinuria [1, 5]	periostin expression in renal cortex ([2]; L-NAME+losartan 4 weeks, NOREG group)	periostin mRNA and protein expression in renal cortex ([2]; L-NAME+losartan 4 weeks, REG group)	vimentin mRNA expression in renal cortex ([2]; after initiation of losartan in L-NAME rats, irrespective of the REG/NOREG group)	renal hemodynamic alterations [3, 5]
COC(=O)[C@@H](N)CCCNC(=N)N[N+](=O)[O-] [LNAME, L-NAME]	1.3±0.2 g/mmol creatininuria	100 ± 14 µmol/L	13 fold	18 fold	211±7 mmHg	212±5 mmHg	striking reduction	strongly increased							
CCCCc1nc(Cl)c(CO)n1Cc1ccc(-c2ccccc2-c2nn[nH]n2)cc1 [Losartan]									76 ± 3 µmol/L	50 ± 2 µmol/L	ameliorated	persistent increase	significantly blunted	sharp decrease	ameliorated
